Data: publication PMC4521925, “17β-Hydroxysteroid Dehydrogenase Type 2 Inhibition: Discovery of Selective and Metabolically Stable Compounds Inhibiting Both the Human Enzyme and Its Murine Ortholog” (PLoS ONE, 2015)

Tests used:
[1] = Metabolic stability in a cell-free assay (liver S9 fraction); type: in vitro ADME; details: pooled liver S9 fraction; human liver S9 fraction 1 mg/ml, NADPH regenerating system, UDPGA, PAPS, 37°C; inhibitor 1 μM; read-out: Inhibitor t1/2
Protocol: Compounds 7a, 8a, 16a, 19a, 22a, 27a and 27 were tested according to established method[33–35]For evaluation of phase I and II metabolic stability 1 μM compound was incubated with 1 mg/ml pooled mammalian liver S9 fraction (BD Gentest), 2 mM NADPH regenerating system, 1 mM UDPGA and 0.1 mM PAPS at 37°C for 0, 5, 15 and 60 minutes at a final volume of 100 μL. The incubation was stopped by precipitation of S9 enzymes with 2 volumes of cold acetonitrile containing internal standard. Concentration of the remaining test compound at the different time points was analyzed by LC-MS/MS and used to determine half-life (t1/2).

[2] = biological target: T1, h17β-HSD2 (Homo sapiens, UniProt P37059); assay: Inhibition of h17β-HSD2 in cell-free assay; type: biochemical; parameters: from tissue; host or cells: human placenta, microsomal fraction; details: for s.f. (selectivity factor) = IC50(17β-HSD1)/IC50(17β-HSD2): human enzymes, cell-free; for inhibition at 1 µM: read-out: % inh. at 1 μM h17β-HSD2
T1 sequence (P37059 1-387): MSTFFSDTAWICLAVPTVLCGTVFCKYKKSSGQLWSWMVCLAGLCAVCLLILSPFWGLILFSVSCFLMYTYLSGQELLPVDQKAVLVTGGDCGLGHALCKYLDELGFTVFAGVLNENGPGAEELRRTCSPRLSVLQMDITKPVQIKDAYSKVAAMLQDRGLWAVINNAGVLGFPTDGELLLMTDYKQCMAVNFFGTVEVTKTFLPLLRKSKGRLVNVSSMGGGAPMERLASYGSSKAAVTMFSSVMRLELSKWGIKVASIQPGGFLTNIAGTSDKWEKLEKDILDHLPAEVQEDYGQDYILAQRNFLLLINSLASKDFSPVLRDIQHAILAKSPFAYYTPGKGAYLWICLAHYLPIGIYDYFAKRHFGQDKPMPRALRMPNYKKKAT
Protocol: (§1) h17β-HSD2, h17β-HSD1, m17β-HSD2 and m17β-HSD1 cell-free assays were performed similarly, by incubating enzyme, tritiated substrate, cofactor and inhibitor, according to described procedures.
(§2) Cytosolic (h17β-HSD1) and microsomal (h17β-HSD2) fractions were obtained from human placenta according to previously described procedures. Fresh tissue was homogenized and the enzymes were separated from the mitochondria, cell membrane. Nucleus and other rests by fractional centrifugation at 1000 g, 10.000 g and 150.000 g. The pellet fraction containing the microsomal h17β-HSD2 was used for the determination of h17β-HSD2 inhibition, while h17β-HSD1 was obtained after precipitation with ammonium sulfate from the cytosolic fraction for use of testing of h17β-HSD1 inhibition. Aliquots containing h17β-HSD1 or h17β-HSD2 were stored frozen.
(§3) Inhibitory activities were evaluated following an established method with minor modifications. Briefly, the enzyme preparation was incubated with NAD^+ [1500 μM] in the presence of potential inhibitors at 37C in a phosphate buffer (50 mM) supplemented with 20% of glycerol and EDTA 1mM. Inhibitor stock solutions were prepared in DMSO. Final concentration of DMSO was adjusted to 1% in all samples. […] After 20 min, the incubation was stopped with HgCl2 and the mixture was extracted with ether. After evaporation, the steroids were dissolved in acetonitrile/water (45:55). […] Detection and quantification of the steroids were performed using a radioflow detector (Berthold Technologies, Bad Wildbad). […] Each value was calculated from at least two independent experiments.

[3] = biological target: T2, h17β-HSD1 (Homo sapiens, UniProt P14061); assay: Inhibition of h17β-HSD1 in cell-free assay; type: biochemical; details: human placental cytosolic fraction, substrate E1 [500 nM], cofactor NADH [500 μM]; for inhibition at 1 µM: read-out: % inh. at 1 μM h17β-HSD1
T2 construct: h17β-HSD1 was obtained after precipitation with ammonium sulfate from the cytosolic fraction; from tissue; host or cells: human placenta, cytosolic fraction
T2 sequence (P14061 1-328): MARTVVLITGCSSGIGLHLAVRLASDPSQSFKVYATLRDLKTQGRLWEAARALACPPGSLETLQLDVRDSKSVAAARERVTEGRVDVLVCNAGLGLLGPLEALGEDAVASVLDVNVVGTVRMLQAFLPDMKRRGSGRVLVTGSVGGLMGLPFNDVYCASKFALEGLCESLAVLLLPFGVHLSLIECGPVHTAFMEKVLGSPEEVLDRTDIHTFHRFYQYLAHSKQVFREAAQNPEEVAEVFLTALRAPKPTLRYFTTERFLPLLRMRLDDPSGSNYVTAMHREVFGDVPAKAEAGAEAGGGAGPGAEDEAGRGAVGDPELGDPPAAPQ
Protocol: as §1, §2
(§4) The 17β-HSD1 inhibition assay was performed similarly to the h17β-HSD2 test. The human cytosolic enzyme was incubated with NADH [500 μM] while the mouse recombinant enzyme was reacted with NADPH [500 μM].Test compound and a mixture of unlabelled- and [^3H]-E1 (final concentration: 500 nM, 0.15 μCi) were added and mixed for 10 min at 37°C. Further treatment of the samples and HPLC separation was carried out as mentioned above for h17β-HSD2.

[4] = biological target: T3, m17β-HSD2 (Mus musculus, UniProt P51658); assay: Inhibition of m17β-HSD2 in cell-free assay; type: biochemical; details: for inhibition at 1 µM: read-out: % inh. at 1 μM m17β-HSD2
T3 construct: The microsomal fraction (m17β-HSD2) was obtained from mouse liver as described for h17β-HSD2; tissue Pharmacelsus GmbH (mouse livers); host or cells: mouse liver, microsomal fraction
T3 sequence (P51658 1-381): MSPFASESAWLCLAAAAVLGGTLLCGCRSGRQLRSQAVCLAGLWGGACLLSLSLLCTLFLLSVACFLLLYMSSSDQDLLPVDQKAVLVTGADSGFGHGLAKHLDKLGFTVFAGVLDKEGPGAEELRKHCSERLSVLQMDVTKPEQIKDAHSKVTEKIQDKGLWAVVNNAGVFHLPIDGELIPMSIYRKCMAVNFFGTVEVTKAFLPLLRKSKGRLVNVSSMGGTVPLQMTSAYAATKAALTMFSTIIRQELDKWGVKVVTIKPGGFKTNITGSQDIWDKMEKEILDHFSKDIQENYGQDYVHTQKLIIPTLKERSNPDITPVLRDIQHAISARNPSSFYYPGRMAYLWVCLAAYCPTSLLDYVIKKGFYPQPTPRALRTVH
Protocol: as §1
The microsomal fraction (m17β-HSD2) was obtained from mouse liver as described for h17β-HSD2. Inhibitory activities were evaluated by a method identical to the one described for the human enzyme.
as §3

[5] = biological target: T4, m17β-HSD1 (Mus musculus, UniProt P51656); assay: Inhibition of m17β-HSD1 in cell-free assay; type: biochemical; details: recombinant m17β-HSD1, substrate E1 [500 nM], NADPH [500 μM]
T4 construct: host or cells: HEK 293 cells, transient transfection, 1000 g supernatant of the lysate
T4 sequence (P51656 1-344): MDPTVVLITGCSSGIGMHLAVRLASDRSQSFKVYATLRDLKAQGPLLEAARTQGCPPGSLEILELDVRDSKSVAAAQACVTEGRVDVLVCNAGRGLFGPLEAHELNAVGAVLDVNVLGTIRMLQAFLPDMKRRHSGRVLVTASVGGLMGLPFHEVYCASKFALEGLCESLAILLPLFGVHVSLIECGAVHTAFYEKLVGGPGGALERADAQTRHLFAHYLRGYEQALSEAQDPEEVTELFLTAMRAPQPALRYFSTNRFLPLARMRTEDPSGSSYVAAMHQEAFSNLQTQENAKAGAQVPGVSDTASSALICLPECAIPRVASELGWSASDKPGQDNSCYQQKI
Protocol: as §1
Recombinant m17β-HSD1 enzyme was produced by transfection of HEK 293 cells with a m17β-HSD1 expression plasmid (coding sequence of NM_010475 in pCMV6Entry vector, OriGene Technologies, Inc.) according to a described procedure. 48 hours after transfection cells were homogenized by sonication (3 x 10 s) in a buffer containing saccharose (40 mMTris, 250 mM saccharose, 5 mM EDTA, 7 mM DTT, 1 mM PMSF, pH 7,5). Cell lysate was centrifuged (1000 g, 15 min, 4°C) and 20% glycerol was added to the supernatant before aliquots were frozen and stored at -70°C.
as §4

[6] = biological target: T5, ERα (Homo sapiens, UniProt P03372); assay: Estrogen receptor affinity in a cell-free assay (ERα); type: binding; details: 1000-fold excess relative to E2; recombinant human ERα
T5 sequence (P03372 1-595): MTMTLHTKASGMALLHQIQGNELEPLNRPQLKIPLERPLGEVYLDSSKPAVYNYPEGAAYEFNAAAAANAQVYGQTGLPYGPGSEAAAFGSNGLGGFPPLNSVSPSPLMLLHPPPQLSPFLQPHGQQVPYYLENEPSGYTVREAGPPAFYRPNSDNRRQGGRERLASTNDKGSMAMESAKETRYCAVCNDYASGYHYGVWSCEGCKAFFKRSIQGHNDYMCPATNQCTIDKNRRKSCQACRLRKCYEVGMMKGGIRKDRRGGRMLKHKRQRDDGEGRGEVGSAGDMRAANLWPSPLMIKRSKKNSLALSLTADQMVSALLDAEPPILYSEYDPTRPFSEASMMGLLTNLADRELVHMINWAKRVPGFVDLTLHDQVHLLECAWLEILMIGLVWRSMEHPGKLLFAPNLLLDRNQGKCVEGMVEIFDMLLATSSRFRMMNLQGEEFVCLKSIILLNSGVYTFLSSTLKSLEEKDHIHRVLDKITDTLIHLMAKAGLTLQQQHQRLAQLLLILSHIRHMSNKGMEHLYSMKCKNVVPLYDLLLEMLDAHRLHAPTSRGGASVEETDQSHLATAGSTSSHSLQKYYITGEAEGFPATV
Protocol: (§5) The binding affinity of selected compounds to ERα and ERβ was determined according to the recommendations of the US Environmental Protection Agency (EPA) by their Endocrine Disruptor Screening Program (EDSP)[24] using recombinant human proteins.
(§6) The potential inhibitors were dissolved in DMSO (5% final concentration). […] After incubation, ligand-receptor complexes were selectively bound to hydroxyapatite (83.5 g/LinTE-buffer). The bound complex was washed three times and resuspended in ethanol. For radiodetection, scintillator cocktail (Quickszint 212, Zinsser Analytic, Frankfurt) was added and samples were measured in a liquid scintillation counter (1450 LSC & Luminescence Counter, Perkin Elmer).
(§7) After the assay was established and validated, a modification was made to increase throughput.

[7] = biological target: ERβ (Homo sapiens, UniProt Q92731); assay: Estrogen receptor affinity in a cell-free assay (ERβ); type: binding; details: 1000-fold excess relative to E2; recombinant human ERβ
Protocol: as §5, §6, §7

ERβ, sequence (Q92731 whole entry): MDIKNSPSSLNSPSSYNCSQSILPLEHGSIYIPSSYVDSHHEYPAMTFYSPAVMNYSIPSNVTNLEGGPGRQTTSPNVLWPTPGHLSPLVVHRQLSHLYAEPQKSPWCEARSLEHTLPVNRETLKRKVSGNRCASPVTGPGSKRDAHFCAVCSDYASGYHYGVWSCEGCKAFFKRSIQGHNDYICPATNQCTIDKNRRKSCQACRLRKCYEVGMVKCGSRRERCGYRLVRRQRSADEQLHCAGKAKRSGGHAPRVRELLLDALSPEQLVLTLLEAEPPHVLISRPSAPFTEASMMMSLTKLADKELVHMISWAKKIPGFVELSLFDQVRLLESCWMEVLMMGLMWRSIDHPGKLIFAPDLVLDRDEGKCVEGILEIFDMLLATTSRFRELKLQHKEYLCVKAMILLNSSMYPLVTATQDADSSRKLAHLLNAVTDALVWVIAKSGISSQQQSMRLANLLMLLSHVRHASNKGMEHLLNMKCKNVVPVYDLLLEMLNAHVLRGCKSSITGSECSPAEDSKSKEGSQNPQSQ

inhibition at 1 µM [2] | inhibition at 1 µM [3] | SMILES | half-life at 1 μM [1] | melting point | IC50 [2] | s.f. (selectivity factor) = IC50(17β-HSD1)/IC50(17β-HSD2) [2] | IC50 [3] | inhibition at 1 µM [4] | inhibition of m17β-HSD1 at 1 μM [5] | IC50 [4] | displacement of E2 from ERα [6] | displacement of E2 from ERβ [7]
 |  | COc1cccc(N(C)C(=O)c2ccc(-c3cccc(C)c3F)cc2)c1 [Compound 20a, 2'-Fluoro-N-(3-methoxyphenyl)-N,3'-dimethyl-[1,1'-biphenyl]-4-carboxamide] | 1.73 h | 91 to 94 °C | 460 nM | 24 | 11300 nM | 48% |  |  |  | 
44% | < 10% | COc1cccc(-c2ccc(C(=O)N(C)c3cccc(C)c3)cc2)c1 [Compound 5a, 3'-Methoxy-N-methyl-N-(m-tolyl)-[1,1'-biphenyl]-4-carboxamide] | 1.93 h |  |  |  |  | 56% |  |  |  | 
 |  | Cc1cccc(N(C)C(=O)c2ccc(-c3ccc4c(c3)OCO4)cc2)c1 [Compound 23a, 4-(Benzo[d][1, 3]dioxol-5-yl)-N-methyl-N-(m-tolyl)benzamide] |  | 111 to 113 °C | 560 nM | 20 | 10900 nM | 70% | None of the tested compounds showed any inhibition |  |  | 
64% | 35% | COc1cccc(N(C)C(=O)c2ccc(-c3cccc(OC)c3F)cc2)c1 [Compound 19a, 2'-Fluoro-3'-methoxy-N-(3-methoxyphenyl)-N-methyl-[1,1'-biphenyl]-4-carboxamide] |  | 125 to 127 °C |  |  |  | 67% | None of the tested compounds showed any inhibition |  |  | 
 |  | COc1cccc(N(C)C(=O)c2ccc(-c3cccc(Cl)c3)cc2)c1 [Compound 14a, 3'-Chloro-N-(3-methoxyphenyl)-N-methyl-[1,1'-biphenyl]-4-carboxamide] | 1.37 h |  | 950 nM | 13 | 12600 nM | 73% | None of the tested compounds showed any inhibition |  |  | 
 |  | COc1cccc(-c2ccc(C(=O)N(C)c3cccc(OC)c3)cc2)c1 [Compound 7a, 3'-Methoxy-N-(3-methoxyphenyl)-N-methyl-[1,1'-biphenyl]-4-carboxamide] |  | 131 to 134 °C | 330 nM | 20 | 6400 nM |  |  | 290 nM | ≤ 20% | ≤ 20%
 |  | COc1ccc(-c2ccc(C(=O)N(C)c3cccc(OC)c3)cc2)cc1 [Compound 10a, 4'-Methoxy-N-(3-methoxyphenyl)-N-methyl-[1,1'-biphenyl]-4-carboxamide] |  | 128 to 130 °C | 710 nM | 38 | 27000 nM | 66% | None of the tested compounds showed any inhibition |  |  | 
